Results reported in ChEMBL document CHEMBL1201862, “PubChem BioAssay data set” (2004).
Values belong to the molecule of their own block, whether it stands above or below them. Calls of active or inactive are those of the source.

How the values were obtained:
CAAX prenyl protease 1 = CAAX prenyl protease 1 (Saccharomyces cerevisiae S288c, UniProt P47154); assay: yeast CAAX protease Ste24 inhibition – biochemical, S. cerevisiae, plate reader, cherry-pick, dose response (AID 488815)
[1] = target: Dual specificity mitogen-activated protein kinase kinase 1 (Homo sapiens, UniProt Q02750); assay: Navigating the Kinome. Panel member name: MAP2K1; format: functional
[2] = target: Leukocyte tyrosine kinase receptor (Homo sapiens, UniProt P29376); assay: Navigating the Kinome. Panel member name: LTK; format: functional
[3] = target: Dual specificity tyrosine-phosphorylation-regulated kinase 1B (Homo sapiens, UniProt Q9Y463); assay: Navigating the Kinome. Panel member name: DYRK1B; format: functional
[4] = target: Cyclin-dependent kinase 8 (Homo sapiens, UniProt P49336); assay: Navigating the Kinome. Panel member name: CDK8; format: functional
[5] = target: Cyclin-dependent kinase 5 (Homo sapiens, UniProt Q00535); format: functional;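 also: CDK5 measured as one member of a kinase profiling panel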
Activated CDC42 kinase 1 = Activated CDC42 kinase 1 (Homo sapiens, UniProt Q07912); assay: Navigating the Kinome. Panel member name: ACK1; format: functional
[6] = target: Calcium/calmodulin-dependent protein kinase type 1 (Homo sapiens, UniProt Q14012); format: functional
[7] = target: Interleukin-1 receptor-associated kinase 4 (Homo sapiens, UniProt Q9NWZ3); format: functional
[8] = target: cGMP-dependent protein kinase 1 (Homo sapiens, UniProt Q13976); format: functional;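 also: value from a kinome panel screen with PRKG1 as the panel member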
[9] = target: Phosphorylase b kinase gamma catalytic chain, liver/testis isoform (Homo sapiens, UniProt P15735); format: functional;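 also: PHKG2 measured as one member of a kinome-wide kinase panel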
[10] = target: Testis-specific serine/threonine-protein kinase 1 (Homo sapiens, UniProt Q9BXA7); format: functional
[11] = target: Serine/threonine-protein kinase Nek2 (Homo sapiens, UniProt P51955); format: functional
[12] = target: Serine/threonine-protein kinase pim-3 (Homo sapiens, UniProt Q86V86); format: functional;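 also: value obtained as one member of a broad kinase panel profiling effort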
[13] = target: Tyrosine-protein kinase SYK (Homo sapiens, UniProt P43405); format: functional
[14] = target: Serine/threonine-protein kinase PLK4 (Homo sapiens, UniProt O00444); format: functional;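 also: PLK4 measured as one member of a kinome-wide kinase profiling panel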
[15] = target: Vascular endothelial growth factor receptor 3 (Homo sapiens, UniProt P35916); format: functional;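 also: value from a kinome-wide profiling panel, with FLT4 as the panel member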
Ephrin type-A receptor 2 = Ephrin type-A receptor 2 (Homo sapiens, UniProt P29317); format: functional;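 also: EPHA2 tested as one member of a kinome-wide kinase panel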
[16] = target: Tyrosine-protein kinase Fer (Homo sapiens, UniProt P16591); format: functional;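 also: FER tested as one member of a kinome panel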
[17] = target: Serine/threonine-protein kinase 3 (Homo sapiens, UniProt Q13188); format: functional;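 also: measured as one member of a kinome-wide kinase panel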
[18] = target: Proto-oncogene tyrosine-protein kinase ROS (Homo sapiens, UniProt P08922); format: functional;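 also: ROS1 tested as one member of a kinome-wide kinase panel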
Hexokinase HKDC1 = target: T1, Hexokinase HKDC1 (Homo sapiens, UniProt Q2TB90); assay: inhibition of HKDC1 glucose phosphorylation – biochemical, W721R variant, dose response (AID 504729); format: functional
T1 sequence (Q2TB90 whole entry): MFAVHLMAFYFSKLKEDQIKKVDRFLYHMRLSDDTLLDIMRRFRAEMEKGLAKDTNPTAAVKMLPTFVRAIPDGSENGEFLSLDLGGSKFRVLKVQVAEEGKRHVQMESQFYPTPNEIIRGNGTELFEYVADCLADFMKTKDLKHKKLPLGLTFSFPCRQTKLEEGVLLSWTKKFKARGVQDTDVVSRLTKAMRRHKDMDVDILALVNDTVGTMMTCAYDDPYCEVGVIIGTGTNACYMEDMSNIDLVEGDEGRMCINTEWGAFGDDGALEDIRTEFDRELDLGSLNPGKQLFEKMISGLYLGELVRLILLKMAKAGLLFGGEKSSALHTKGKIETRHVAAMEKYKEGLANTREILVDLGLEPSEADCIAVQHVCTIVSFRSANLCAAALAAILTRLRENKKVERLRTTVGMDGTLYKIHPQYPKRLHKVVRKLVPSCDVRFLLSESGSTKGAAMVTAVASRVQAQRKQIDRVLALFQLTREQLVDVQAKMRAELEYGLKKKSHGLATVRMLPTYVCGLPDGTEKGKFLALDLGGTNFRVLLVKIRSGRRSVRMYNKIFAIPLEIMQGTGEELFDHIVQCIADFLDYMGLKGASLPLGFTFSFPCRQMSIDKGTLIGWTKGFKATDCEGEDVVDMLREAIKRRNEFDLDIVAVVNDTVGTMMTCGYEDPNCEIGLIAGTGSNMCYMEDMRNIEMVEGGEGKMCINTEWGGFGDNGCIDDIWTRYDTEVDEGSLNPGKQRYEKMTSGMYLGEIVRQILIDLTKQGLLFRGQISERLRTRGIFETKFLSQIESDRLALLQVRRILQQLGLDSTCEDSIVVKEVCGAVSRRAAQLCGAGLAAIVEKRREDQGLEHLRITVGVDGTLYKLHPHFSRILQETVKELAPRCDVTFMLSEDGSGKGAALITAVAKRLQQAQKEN

[19] = viability of PTEN-deleted HCT116 cells – cell-based, HCT116 PTEN knockout, dose response (AID 1047); format: functional;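 also: HCT116 colon tumor cells with PTEN knocked out; cells exposed to compound for 60 hours before readout; potency for loss of cell viability measured by luminescence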

Leukocyte tyrosine kinase receptor, sequence (P29376 whole entry): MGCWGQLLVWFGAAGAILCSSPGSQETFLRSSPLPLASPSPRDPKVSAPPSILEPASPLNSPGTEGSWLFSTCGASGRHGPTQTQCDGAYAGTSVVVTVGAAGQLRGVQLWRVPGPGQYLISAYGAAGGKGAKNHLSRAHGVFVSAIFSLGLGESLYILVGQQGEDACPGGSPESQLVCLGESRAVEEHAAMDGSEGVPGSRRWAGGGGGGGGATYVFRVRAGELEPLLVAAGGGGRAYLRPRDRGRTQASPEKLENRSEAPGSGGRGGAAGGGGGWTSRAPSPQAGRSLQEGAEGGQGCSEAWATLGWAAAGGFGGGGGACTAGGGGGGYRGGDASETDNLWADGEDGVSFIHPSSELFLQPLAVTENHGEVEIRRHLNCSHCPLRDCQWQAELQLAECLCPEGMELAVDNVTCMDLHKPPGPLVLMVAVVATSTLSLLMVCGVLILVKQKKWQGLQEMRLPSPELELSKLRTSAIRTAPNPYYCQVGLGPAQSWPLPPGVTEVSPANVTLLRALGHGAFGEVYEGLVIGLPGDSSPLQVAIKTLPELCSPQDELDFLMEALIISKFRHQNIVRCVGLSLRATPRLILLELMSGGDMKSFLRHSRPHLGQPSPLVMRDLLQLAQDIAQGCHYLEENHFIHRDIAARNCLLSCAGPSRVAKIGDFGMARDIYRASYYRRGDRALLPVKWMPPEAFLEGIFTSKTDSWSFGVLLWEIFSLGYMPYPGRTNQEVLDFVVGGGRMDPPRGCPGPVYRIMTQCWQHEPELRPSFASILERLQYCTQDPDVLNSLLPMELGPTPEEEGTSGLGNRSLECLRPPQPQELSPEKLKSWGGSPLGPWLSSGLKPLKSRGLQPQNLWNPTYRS
CAAX prenyl protease 1, sequence (P47154 whole entry): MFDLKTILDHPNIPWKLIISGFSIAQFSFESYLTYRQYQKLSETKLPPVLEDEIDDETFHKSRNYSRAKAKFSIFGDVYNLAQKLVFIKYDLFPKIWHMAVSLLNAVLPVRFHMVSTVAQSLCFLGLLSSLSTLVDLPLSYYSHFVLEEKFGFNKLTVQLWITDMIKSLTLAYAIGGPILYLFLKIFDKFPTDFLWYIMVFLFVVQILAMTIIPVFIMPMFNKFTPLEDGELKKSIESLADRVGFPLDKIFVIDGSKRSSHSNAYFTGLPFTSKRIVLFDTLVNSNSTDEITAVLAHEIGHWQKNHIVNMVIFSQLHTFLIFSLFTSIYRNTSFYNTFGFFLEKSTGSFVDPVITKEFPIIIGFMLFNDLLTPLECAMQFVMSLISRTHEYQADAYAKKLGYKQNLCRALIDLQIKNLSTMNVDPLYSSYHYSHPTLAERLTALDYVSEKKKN
Serine/threonine-protein kinase Nek2, sequence (P51955 whole entry): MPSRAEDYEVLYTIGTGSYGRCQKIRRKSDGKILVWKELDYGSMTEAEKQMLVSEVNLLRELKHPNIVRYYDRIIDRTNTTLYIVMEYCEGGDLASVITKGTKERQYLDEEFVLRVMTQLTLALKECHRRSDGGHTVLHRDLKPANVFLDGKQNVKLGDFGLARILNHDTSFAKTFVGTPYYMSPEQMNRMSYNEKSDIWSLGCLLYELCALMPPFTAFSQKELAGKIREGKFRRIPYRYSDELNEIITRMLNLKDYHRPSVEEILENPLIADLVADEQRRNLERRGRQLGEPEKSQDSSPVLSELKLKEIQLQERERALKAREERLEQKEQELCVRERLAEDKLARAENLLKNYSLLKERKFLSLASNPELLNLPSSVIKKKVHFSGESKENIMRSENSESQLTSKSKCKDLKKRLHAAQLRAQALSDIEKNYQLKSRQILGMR
Ephrin type-A receptor 2, sequence (P29317 whole entry): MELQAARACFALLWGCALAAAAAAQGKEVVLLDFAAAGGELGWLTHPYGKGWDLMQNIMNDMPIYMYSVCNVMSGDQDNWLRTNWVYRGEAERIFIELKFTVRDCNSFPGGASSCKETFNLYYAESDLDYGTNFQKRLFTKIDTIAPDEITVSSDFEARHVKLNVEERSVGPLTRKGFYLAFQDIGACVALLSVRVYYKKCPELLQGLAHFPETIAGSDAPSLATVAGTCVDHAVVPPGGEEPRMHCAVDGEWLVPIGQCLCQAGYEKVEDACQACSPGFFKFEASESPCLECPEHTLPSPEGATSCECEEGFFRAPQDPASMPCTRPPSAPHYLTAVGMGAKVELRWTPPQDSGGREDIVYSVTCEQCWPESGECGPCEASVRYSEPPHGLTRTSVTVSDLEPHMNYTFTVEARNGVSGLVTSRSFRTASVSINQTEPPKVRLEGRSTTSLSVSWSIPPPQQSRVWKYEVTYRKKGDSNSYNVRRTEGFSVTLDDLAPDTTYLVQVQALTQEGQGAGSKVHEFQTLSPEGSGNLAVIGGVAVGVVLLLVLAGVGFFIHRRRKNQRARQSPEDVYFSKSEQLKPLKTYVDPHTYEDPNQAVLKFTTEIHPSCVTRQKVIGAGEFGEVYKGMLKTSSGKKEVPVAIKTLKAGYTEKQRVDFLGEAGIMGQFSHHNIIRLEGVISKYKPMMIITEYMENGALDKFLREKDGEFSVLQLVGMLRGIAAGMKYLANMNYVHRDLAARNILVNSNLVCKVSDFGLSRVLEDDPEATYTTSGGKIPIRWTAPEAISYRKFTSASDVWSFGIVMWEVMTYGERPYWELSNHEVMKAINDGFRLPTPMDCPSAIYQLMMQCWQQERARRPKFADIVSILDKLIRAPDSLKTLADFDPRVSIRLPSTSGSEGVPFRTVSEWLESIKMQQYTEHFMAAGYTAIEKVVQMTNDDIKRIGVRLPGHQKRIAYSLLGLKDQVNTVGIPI
Activated CDC42 kinase 1, sequence (Q07912 whole entry): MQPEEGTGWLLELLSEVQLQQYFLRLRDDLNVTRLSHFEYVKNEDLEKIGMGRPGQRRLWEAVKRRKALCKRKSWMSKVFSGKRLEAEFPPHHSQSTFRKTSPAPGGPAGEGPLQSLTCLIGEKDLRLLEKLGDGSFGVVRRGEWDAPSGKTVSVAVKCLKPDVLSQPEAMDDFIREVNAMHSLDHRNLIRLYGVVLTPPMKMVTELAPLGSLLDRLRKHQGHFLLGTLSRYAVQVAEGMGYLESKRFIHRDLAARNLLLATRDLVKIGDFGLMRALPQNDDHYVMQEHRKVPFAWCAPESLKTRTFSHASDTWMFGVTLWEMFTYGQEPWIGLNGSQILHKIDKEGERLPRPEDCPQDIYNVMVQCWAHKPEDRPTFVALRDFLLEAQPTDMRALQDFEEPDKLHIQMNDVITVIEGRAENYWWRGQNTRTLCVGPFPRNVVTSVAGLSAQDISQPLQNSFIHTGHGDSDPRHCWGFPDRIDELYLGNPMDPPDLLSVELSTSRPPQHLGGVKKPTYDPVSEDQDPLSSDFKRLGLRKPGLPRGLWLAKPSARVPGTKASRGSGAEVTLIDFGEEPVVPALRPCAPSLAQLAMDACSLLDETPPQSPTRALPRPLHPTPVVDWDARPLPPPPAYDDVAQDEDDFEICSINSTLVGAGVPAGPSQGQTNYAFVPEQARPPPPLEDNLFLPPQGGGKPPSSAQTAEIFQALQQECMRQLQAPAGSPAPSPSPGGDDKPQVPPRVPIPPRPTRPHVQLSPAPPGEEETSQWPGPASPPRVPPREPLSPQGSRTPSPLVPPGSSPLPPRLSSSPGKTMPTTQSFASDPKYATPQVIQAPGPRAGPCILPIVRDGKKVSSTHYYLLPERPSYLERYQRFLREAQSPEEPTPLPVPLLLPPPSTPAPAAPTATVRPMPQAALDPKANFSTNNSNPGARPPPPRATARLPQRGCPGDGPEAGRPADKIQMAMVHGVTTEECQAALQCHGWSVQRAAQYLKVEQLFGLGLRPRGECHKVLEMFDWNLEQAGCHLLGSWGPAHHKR
Cyclin-dependent kinase 5, sequence (Q00535 whole entry): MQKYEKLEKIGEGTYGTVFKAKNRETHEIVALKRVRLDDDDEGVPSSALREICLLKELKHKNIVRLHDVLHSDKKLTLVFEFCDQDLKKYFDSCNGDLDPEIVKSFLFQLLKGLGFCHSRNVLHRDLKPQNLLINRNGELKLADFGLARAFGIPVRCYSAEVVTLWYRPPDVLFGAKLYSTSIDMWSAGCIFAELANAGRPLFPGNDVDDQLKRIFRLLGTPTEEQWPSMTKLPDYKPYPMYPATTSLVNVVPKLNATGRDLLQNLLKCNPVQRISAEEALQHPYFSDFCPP
Dual specificity tyrosine-phosphorylation-regulated kinase 1B, sequence (Q9Y463 whole entry): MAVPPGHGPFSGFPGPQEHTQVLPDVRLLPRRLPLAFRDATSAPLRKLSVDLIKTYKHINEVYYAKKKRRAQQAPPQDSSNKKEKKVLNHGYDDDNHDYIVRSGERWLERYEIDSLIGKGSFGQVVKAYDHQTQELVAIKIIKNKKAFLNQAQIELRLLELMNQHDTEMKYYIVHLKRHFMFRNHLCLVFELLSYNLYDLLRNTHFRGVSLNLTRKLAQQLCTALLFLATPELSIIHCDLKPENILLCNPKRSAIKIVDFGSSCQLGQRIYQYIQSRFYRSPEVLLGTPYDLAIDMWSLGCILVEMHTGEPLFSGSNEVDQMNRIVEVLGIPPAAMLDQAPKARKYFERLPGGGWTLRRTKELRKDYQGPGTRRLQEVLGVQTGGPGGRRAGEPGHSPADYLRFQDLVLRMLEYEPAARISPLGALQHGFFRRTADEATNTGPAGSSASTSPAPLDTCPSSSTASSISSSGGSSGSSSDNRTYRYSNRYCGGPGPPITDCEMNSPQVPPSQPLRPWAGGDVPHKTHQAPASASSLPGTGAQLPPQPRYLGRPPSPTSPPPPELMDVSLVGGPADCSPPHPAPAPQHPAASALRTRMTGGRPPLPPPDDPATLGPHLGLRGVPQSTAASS

Compound: CCCCCCCCCCC[N+](C)(C)CC/C=C1/c2ccccc2Sc2ccc(Cl)cc21
AC50 (CAAX prenyl protease 1): 7.07 µM (active)

Ki [1]: > 2.51 µM (inactive)
Ki [2]: > 2.51 µM (inactive)
Ki [3]: 0.0316 µM (active)
Ki [4]: 3.98 µM (active)
Ki [5]: > 3.16 µM (inactive)
Ki (Activated CDC42 kinase 1): > 3.98 µM (inactive)
Compound: CCn1c(-c2nonc2N)nc2cncc(C(=O)N3CCC(N)C3)c21 (stereo not drawn)

Compound: Cc1[nH]nc2ccc(-c3cncc(OCC(N)Cc4c[nH]c5ccccc45)c3)cc12 (stereo not drawn)
Ki [6]: > 7.94 µM (inactive)
Ki [7]: 0.794 µM (active)
Ki [8]: 0.251 µM (active)
Ki [9]: 1 µM (active)
Ki [10]: 0.501 µM (active)
Ki [11]: > 10 µM (inactive)
Ki [12]: 0.01 µM (active)
Ki [13]: > 1.58 µM (inactive)
Ki [14]: > 3.98 µM (inactive)
Ki [15]: 1.58 µM (active)
Ki (Ephrin type-A receptor 2): > 3.16 µM (inactive)
Ki [16]: > 1.58 µM (inactive)
Ki [17]: 0.0501 µM (active)
Ki [18]: 0.794 µM (active)

Compound: COC(=O)c1ccccc1NC1=C/C(=N\S(=O)(=O)c2cccs2)c2ccccc2C1=O
IC50 (Hexokinase HKDC1): 27.5 µM (inactive)
EC50 [19]: 7.96 µM (active)
